The record followed here is patent US9387231B2, “Compositions comprising a Brd4 antagonist and methods for the treatment of HIV” (THE CHILDREN'S HOSPITAL OF PHILADELPHIA, priority 2011, dated 2016).

“Also recorded” adds a separate entry of the source.

Holding throughout (format): cell-based
The test system of one assay is HIV-1 LTR promoter. The assay can be described thus: Activation of the HIV LTR in CEMss LTR-GFP reporter cells (GFP by flow cytometry). Here is the method:
CEMss LTR-GFP cells were infected with NL43 and cultured in the presence of the BET antagonists JQ1(+) (1 μM) or the control enantiomer JQ1(−). GFP expression in cells was examined by flow cytometry. A representative of three experiments is shown. FIG. 2B provides a graph showing GFP expression in cells when cultured with different amounts of JQ1, as determined by flow cytometry. 0.25 μM of JQ1(+) was sufficient to dramatically increase the expression of GFP in NL43 infected CEMss LTR-GFP cells. FIGS. 2C and 2D show percentage of GFP expression (FIG. 2C) and mean fluorescence of GFP (MFI; FIG. 2D) in CEMss LTR-GFP cells cultured in the presence of JQ1(+) or JQ1(−) (1 μM), and different amount of HIV-1 Tat. FIG. 2E provides dot plots of CEMss LTR-GFP cells were cultured with increasing amounts of HIV Tat (0, 8, 16 or 32 μg/ml) in the presence of JQ1(+) or JQ1(−) (1 μM) for 1 day. Non-underlined numbers indicate percentage of GFP and underlined numbers indicate mean fluorescence of GFP (MFI).
GFP expression was measured by flow cytometry. FIGS. 3B and 3C shown the percentage of cells positive for GFP (FIG. 3B) and the mean MFI of GFP (FIG. 3C) in latently infected cell lines, J-Lat clones 82, A72, A7, A2, and A1, at 16 hours after TNFα or PHA was added in the cultures in the presence of JQ1(+) or JQ1(−). […] GFP expression in cells was measured by flow cytometry and is indicated as percent of GFP+ cells in gated live cell populations. An average of 5 experiments is shown. * p<0.05, ** p<0.01, *** p<0.001. […] Average of 3 experiments is shown. * p<0.05. For FIG. 3F, J-Lat A2 and A72 cells were reactivated with TNFα (20 ng/ml) or HIV Tat protein (50 μg/ml) in the presence of JQ1(+) or JQ1(−) for 16-18 hours, and GFP expression in cells was measured by flow cytometry. One representative experiment is shown. In each dot plot, non-underlined numbers indicate percentage of GFP+ cells and underlined numbers indicate mean fluorescence of GFP (MFI).
BET antagonists also drive activation of the HIV LTR. Specifically, the effects of JQ1 on transcription from the HIV LTR were tested. CEMss LTR-GFP cells (a reporter cell line stably transfected with GFP under the control of the HIV-1 LTR promoter) were infected with NL43 and cultured in the presence of BET antagonists or controls. GFP expression was measured at days 0, 1, 2, 3, and 6 post-infection. GFP expression was higher in the presence of the BET inhibitor (JQ1) compared to controls (FIG. 2A). Further, by varying the amount of JQ1, it was determined that 0.25 μM of JQ1(+) was sufficient to dramatically increase Tat-driven HIV-1 transcription (FIG. 2B). CEMss LTR-GFP cells were also cultured in the presence of JQ1(+) or JQ1(−) (1 μM) and different amount of HIV-1 Tat (0-32 μg/ml). […] FIG. 2E provides dot plots of the experiments.
Next, the effect of JQ1 on activation of the HIV LTR was tested using a latently infected Jurkat-derived cell clone, J-Lat clone A2. GFP expression in J-Lat clone A2 is induced upon reactivation with tumor necrosis factor-alpha (TNFα) or phytohaemagglutinin (PHA).
In general terms: A flow cytometer gives signals particle by particle.

Assay [1] deals with RNA polymerase II binding to the HIV LTR. The assay can be described thus: Chromatin immunoprecipitation (ChIP) of HIV LTR DNA, RNA polymerase II. The conditions noted are these: CEMss LTR-GFP cells infected with HIV NL4-3, days 3 to 5, compared to JQ1(−), p<0.001. Here is the method:
(§1) FIGS. 7A and 7B show the fold increase in the binding of IgG, RNA polymerase II, or Cdk9 to the HIV LTR in the presence of JQ1(+) or JQ1(−) for early (FIG. 7A) and late (FIG. 7B) HIV-1 transcript. ***p<0.001.
(§2) To further investigate the mechanism of JQ1(+) reactivation of HIV transcription in latently infected T-cells, the binding of RNA polymerase II (PoI II) and p-TEFb (Cdk9/Cyclin T) to the promoter region of HIV LTR was measured using chromatin immunoprecipitation (ChIP). A CEMss reporter cell line stably transfected with GFP under the control of the HIV LTR promoter was used. CEMss LTR-GFP cells were infected with HIV NL4-3 in the presence of JQ1(+) or JQ1(−). At days 3 to 5 of infection, cells were collected and sheared, and formaldehyde cross-linked chromatin extracts were immunoprecipitated with antibodies specific for IgG, RNA polymerase II, or Cdk9. The abundance of HIV LTR DNA in immunoprecipitates was assessed by qPCR with two sets of primers specific for early or late regions of the HIV LTR.

The test system of assay [2] is Cdk9 binding to the HIV LTR. The assay can be described thus: Chromatin immunoprecipitation (ChIP) of HIV LTR DNA, Cdk9. Particulars: CEMss LTR-GFP cells infected with HIV NL4-3, days 3 to 5, compared to JQ1(−), p<0.001. Here is the method:
as §1, §2

Another assay has as its system HIV (NL43, SG3). The assay is described as follows: Viral production and p24Gag expression in HIV-infected CEMss LTR-GFP cells.
For assay [3], the system named is HIV-1 NL43, SG3 or SG3deltaVif. The assay is described as follows: Reactivation in latently infected primary resting CD4 T-cells (p24 ELISA). As to the method: A representative of three experiments is shown. […] AZT (100 μM) was added at day 1 after infection to prevent the spreading infection. The level of p24 in the media was measured by ELISA at day 3 (d3) and day 5 (d5) post-infection. The data shown are summarized for triplicate samples.
For FIG. 5A, primary resting CD4 T-cells were purified and spinoculated with HIV-1 NL43 or mock control. The infected cells were then cultured in the presence of 1 μM of JQ1(+) or JQ1(−). At day 3 after infection, IL-7 (20 ng/ml) was added in some of the cultures. Cells were counted and cell supernatants were collected at day 5 after infection. For FIG. 5B, primary CD4 T-cells were spinoculated with SG3 or SG3deltaVif and cultured in the presence of 1 μM of JQ1(+) or JQ1(−). AZT (100 μM) was added at day 1 after infection to prevent the spreading infection. IL7 (20 ng/ml) was added in some culture at day 3 after infection and the level of p24 in the media was measured by ELISA at day 3 and day 5 post-infection. The data shown are summarized with triplicates.
In general terms: An ELISA detects its analyte on a solid surface through an enzyme-linked reagent.

`Cc1sc2c(c1C)C(c1ccc(Cl)cc1)=N[C@@H](CC(=O)OC(C)(C)C)c1nnc(C)n1-2` [JQ1(+), tert-butyl 2-((6S)-4-(4-chlorophenyl)-2,3,9-trimethyl-6H-thieno[3,2-f][1,2,4]triazolo[4,3-a][1,4]diazepin-6-yl)acetate]: the GFP expression entry with HIV-1 LTR promoter (CEMss LTR-GFP cells infected with NL43, 1 μM, compared to controls, days 0-6) is “higher”. In the assay with HIV-1 LTR promoter (CEMss LTR-GFP cells, 20 ng/ml TNFα, 1 μM, 1 day, absence of Tat), the “TNFα-induced activation of the HIV LTR” value was “promotes”. In addition, the “Mean fluorescence intensities (MFI) of GFP” value with HIV-1 LTR promoter (CEMss LTR-GFP cells, 1 μM, with 8, 16 or 32 μg/ml HIV-1 Tat) is reported as “dramatically enhanced”. Further, the “Amount sufficient to dramatically increase Tat-driven HIV-1 transcription (GFP expression)” value in the assay on HIV-1 LTR promoter (NL43 infected CEMss LTR-GFP cells) is 0.25 µM. For the same molecule, the “Binding of RNA Pol II to the HIV LTR” value in assay [1] is recorded as “significantly increased”. In assay [2], the “Binding of Cdk9 to the HIV LTR” value was “significantly increased”. In the assay on HIV (NL43, SG3) (CEMss LTR-GFP cells infected with SG3, day 5 post-infection, flow cytometry), the “Relative number of Gag-expressing live GFP+ cells” value was “significantly decreased”. Besides, in the assay with HIV (NL43, SG3) (CEMss LTR-GFP cells, HIV NL4-3, 0.25 μM, day 6 after infection, ELISA), the “Production of p24 in supernatants” value is “decreased below control values”. For the same molecule, in the assay on HIV (NL43, SG3) (CEMss LTR-GFP cells, NL43, 1 μM, day 3 after infection), the “Expression of p24Gag in the infected cells (ratio of p24+ in GFP+ population)” value is “decreased”. The “Viral production (p24Gag in supernatants, ELISA)” value with HIV (NL43, SG3) (CEMss LTR-GFP cells, NL43, 1 μM, day 6 after infection) is on record as “decreased”. In assay [3] (latently infected primary resting CD4 T-cells, NL43, 1 μM), the “Reactivation of the HIV LTR (p24 per million cells)” value is listed as “drives the reactivation of the HIV LTR”. In assay [3] (wild-type SG3 latently infected primary CD4 T-cells, 1 μM, AZT 100 μM), the “Reactivation of the HIV LTR (p24 in media)” value is recorded as “drives reactivation of the HIV LTR; also recorded: drives the reactivation of the HIV LTR”.
